Measurements as given in ChEMBL document CHEMBL1144888, “Synthesis, structure-activity relationship, and evaluation of SR141716 analogues: development of central cannabinoid receptor ligands with lower lipophilicity” (J Med Chem, 2003).

Columns and labels:
Cannabinoid receptor 1 = Cannabinoid receptor 1 (Rattus norvegicus, UniProt P20272)
[1] = Partition coefficient (logD7.4); settings: octanol/water, pH 7.4

Chain of Cannabinoid receptor 1 (P20272 whole entry): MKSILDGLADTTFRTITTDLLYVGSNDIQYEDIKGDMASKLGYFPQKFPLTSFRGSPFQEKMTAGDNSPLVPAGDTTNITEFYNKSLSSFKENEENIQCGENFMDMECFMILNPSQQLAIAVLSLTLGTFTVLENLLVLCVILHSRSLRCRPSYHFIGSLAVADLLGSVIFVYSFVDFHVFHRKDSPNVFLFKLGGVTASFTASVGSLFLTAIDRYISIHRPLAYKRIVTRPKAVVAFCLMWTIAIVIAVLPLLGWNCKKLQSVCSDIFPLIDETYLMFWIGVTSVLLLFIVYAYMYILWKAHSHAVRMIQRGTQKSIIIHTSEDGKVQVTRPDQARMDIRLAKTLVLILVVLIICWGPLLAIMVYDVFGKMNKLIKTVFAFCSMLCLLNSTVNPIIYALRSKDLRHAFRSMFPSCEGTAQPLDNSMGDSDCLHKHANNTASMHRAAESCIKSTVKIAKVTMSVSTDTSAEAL

Structure (SMILES)	Ki (Cannabinoid receptor 1)	logD [1]
Cc1c(C(=O)NN2CCCCC2)nn(-c2ccc(Cl)cc2Cl)c1-c1ccc(O)cc1	104 nM	
COc1ccc(-c2c(F)c(C(=O)NN3CCCCC3)nn2-c2ccccc2Cl)cc1	18.2 nM	
Cc1c(C(=O)NN2CCCCC2)nn(-c2ccc(Cl)cc2Cl)c1-c1ccc(OC2CCCN2C(=O)OC(C)(C)C)cc1 (centres undefined)	390 nM	
COc1ccc(-c2c(C)c(C(=O)NN3CCCCC3)nn2-c2ccccc2OC)cc1	440 nM	
COc1ccc(-c2c(C)c(C(=O)NN3CCCCC3)nn2-c2ccccc2F)cc1	37.8 nM	

These reach a lower Ki (Cannabinoid receptor 1). Values come first.

Ki (Cannabinoid receptor 1)	logD [1]	Structure (SMILES)
6.2 nM		COc1ccc(-c2c(Br)c(C(=O)NN3CCCCC3)nn2-c2ccccc2Cl)cc1
9 nM	5.14	O=C(NN1CCCCC1)c1cc(-c2ccc(Cl)cc2)n(-c2ccc(Cl)cc2Cl)n1
5.2 nM		COc1ccc(-c2c(Br)c(C(=O)NN3CCCCCC3)nn2-c2ccc(Cl)cc2Cl)cc1
7.1 nM		Cc1c(C(=O)NN2CCCCC2)nn(-c2ccc(Cl)cc2Cl)c1-c1ccc2c(c1)OCO2
1.4 nM		O=C(NN1CCCCC1)c1nn(-c2ccc(Cl)cc2Cl)c(-c2ccc(Cl)cc2)c1Br
8 nM		COc1ccc(-c2c(C)c(C(=O)NN3CCCCC3)nn2-c2ccccc2Cl)cc1
7 nM		COc1ccc(-c2c(C)c(C(=O)NN3CCCCCC3)nn2-c2ccc(Cl)cc2Cl)cc1
4.5 nM		Cc1c(C(=O)NN2CCOCC2)nn(-c2ccc(Cl)cc2Cl)c1-c1ccc(I)cc1
